In US20230339915A1 (Vertex Pharmaceuticals Incorporated, priority 2020, published 2023):

Legend:
[1] = target: NL20 human bronchial epithelial cells expressing human Z-AAT (Homo sapiens (Human), UniProt P01009, E366K); test: AAT Function Assay (MSD Assay NL20-SI Cell Line); format: cell-based; conditions: functionally active AAT (AAT-hNE complex, MSD) in supernatant of NL20 cells expressing human Z-AAT; read-out: NL20 Functional EC50
Description: A. AAT Function Assay (MSD Assay NL20-SI Cell Line)
Alpha-1 antitrypsin (AAT) is a SERpIN (serine protease inhibitor) that inactivates enzymes by binding to them covalently. This assay measured the amount of functionally active AAT in a sample in the presence of the disclosed Compounds 1-227 by determining the ability of AAT to form an irreversible complex with human neutrophil Elastase (hNE). In practice, the sample (cell supernatant, blood sample, or other) was incubated with excess hNE to allow AAT-Elastase complex to be formed with all functional AAT in the sample. This complex was then captured to a microplate coated with an anti-AAT antibody. The complex captured to the plate was detected with a labeled anti-Elastase antibody and quantitated using a set of AAT standards spanning the concentration range present in the sample. Meso Scale Discovery (MSD) plate reader, Sulfo-tag labeling, and microplates were used to provide high sensitivity and wide dynamic range.
Instrument(S): • Meso Sector S600 • Bravo • Washer dispenser • Multidrop Combi
Day 1 Cell Culture • 1. Harvest NL20 human bronchial epithelial cells expressing human Z-AAT in OptiMEM™ containing Pen/Strep (P/S) • 2. Seed at 16,000 cells/well in 30 μL (384 well plate) • 3. Centrifuge plates briefly up to speed (1200 rpm) and place into 37° C. incubator overnight
Day 2: Compound Addition and Coating Plates with Capture Antibody
Compound Addition: • 1. Dispense 40 μL of OptiMEM™ (P/S) with doxycycline (1:1000 stock=0.1 μM final) to each well of the compound plate using a multidrop Combi in hood • 2. Remove cell plate from incubator, flip/blot and take immediately to Bravo to transfer compounds • 3. Return plates to incubator overnight
Coat MSD Plates • 1. Dilute capture antibody (Polyclonal Goat anti-AAT) to 5 μg/mL (1:200) in PBS (no BSA). • 2. Dispense 25 μL of diluted capture antibody into all wells of MSD 384-well High Bind plate using the Multidrop equipped with a standard cassette. • 3. Incubate overnight at 4° C.
Prepare Blocker A (BSA) Solutions • 1. Prepare solution of 5% MSD Blocker A (BSA) following the manufacturer's instructions. • 2. Further dilute the 5% MSD Blocker A in PBS to 1% (Blocker A) as needed.
Block Plates • 1. Wash plate 1× with 50 μL Wash buffer (PBS+0.5% Tween 20), and adds 35 μL 5% Block A buffer to block non-specific binding on washer dispenser • 2. Rotate plates on shaker for 1 hour at 600 rpm
Prepare M-AA T Standards • 1. Dilute M-AAT stock to 1.6 μg/mL in 1% BSA Blocker A (Stock in −70° C.); then prepare 12×1:2 serial dilutions in 1% Blocker A • 2. The top starting final concentration on MSD plate is 320 ng/mL. These dilutions correspond to a final concentration of 320, 160, 80, 40, 20, 10, 5, 2.5, 1.25, 0.625, 0.312, 0.156 ng/mL.
Dilution Plate • 1. Add 80 μL of 1% Assay buffer to all wells except columns 1/24 (standards) with Multidrop Combi • 2. Add diluted standards to columns 1 and 24 • 3. Centrifuge dilution plates 1200 rpm briefly
Cell Plate • 1. Aspirate columns which will have the standards from the cell plates in the hood using 16-pin aspirator
Prepare Human Neutrophil Elastase (hNE) • 1. Prepare 1 μg/mL Human Neutrophil Elastase by diluting in 1% Blocker A. • a. Small 100 μg vial—add 1 mL PBS (100 μg/mL) • i. This can then be diluted 1:100 in 1% Assay Buffer for a final 1 μg/mL concentration
MSD—add hNE (20 μL/well) • 1. After the MSD plate has blocked for at least 1 hour, wash plate 1× with 50 μL Wash buffer (PBS+0.5% Tween 20) and then add 20 μL hNE to each well
Bravo—Cell Plate—Dilution Plate—MSD Plate
Using the Bravo aspirate 10 μL from the cell plate, transfer to the dilution plate (9-fold dilution) • 1. Mix 25 μL 3×, then aspirate 5 μL, transfer to MSD plate (5-fold dilution) • 2. Mix 10 μL 3×. Total dilution is 45 fold. • 3. Shake plates at 600 rpm for 1.5 hours
Add Functional Detection hNE Antibody • 1. Wash plate 1× with wash buffer • 2. […]

[2] = target: purified Z-AAT protein from human plasma (Homo sapiens (Human), UniProt P01009, E366K); test: Biochemical Assay (Z-AAT Elastase Activity Assay); conditions: purified Z-AAT pre-incubated with compound 1 hour, then human neutrophil elastase and fluorescent substrate
Description: B. Biochemical Assay (Z-AAT Elastase Activity Assay)
This assay measured the modulation of Compounds 1-227 on Z-AAT SERpIN activity using purified Z-AAT protein and purified human neutrophil elastase (hNE). Normally, when active monomeric Z-AAT encounters a protease such as trypsin or elastase, it forms a 1:1 covalent “suicide” complex in which both the AAT and protease are irreversibly inactivated. However, compounds binding to Z-AAT can lead to a decrease in SERpIN activity. In such cases, when a protease encounters compound-bound Z-AAT, the protease cleaves and inactivates Z-AAT without itself being inactivated.
Reagents • PBS buffer (media prep)+0.01% BRIJ35 detergent (Calbiochem catalog #203728) Opti-MEM media (Fisher 11058-021) • Human neutrophil elastase (hNE, Athens Research #16-14-051200) • 3.4 μM stock (0.1 mg/mL) prepared in 50 mM Na Acetate, pH 5.5, 150 mM NaCl, stored at −80° C. • Elastase substrate V (ES V, fluorescent peptide substrate MeOSuc-Ala-Ala-Pro-Val-AMC, Calbiochem catalog #324740) • 20 mM stock in DMSO, stored at −20° C. • Purified Z-AAT protein from human plasma; • 12.9 μM (0.67 mg/mL) Z-AAT Vertex Cambridge Sample 4942, from patient • #061-SSN, stored at −80 C
Plates • Corning 4511 (384 well black low volume)
Instruments • PerkinElmer® EnVision™
Pre-Incubation of Z-AAT with Compounds • 1. 7.5 μL of Z-AAT (20 nM) was incubated with compounds 1-227 in a GCA plate for 1 hour at room temperature
Addition of hNE • 1. 7.5 ul of HNE solution (3 nM in PBS+0.01% BRIJ35) added into GCA plate • 2. Incubate plate for 30 minutes to allow Z-AAT/HNE suicide complex formation.
Addition of Substrate and Read Plate on PE Envision • 1. 7.5 μL of substrate (300 μM solution of elastase substrate (ES V) in PBS+0.01% BRIJ35) dispensed per well into GCA plate • 2. Immediately read on Envision.

Sequence of purified Z-AAT protein from human plasma (P01009 25-418 E366K limits assumed): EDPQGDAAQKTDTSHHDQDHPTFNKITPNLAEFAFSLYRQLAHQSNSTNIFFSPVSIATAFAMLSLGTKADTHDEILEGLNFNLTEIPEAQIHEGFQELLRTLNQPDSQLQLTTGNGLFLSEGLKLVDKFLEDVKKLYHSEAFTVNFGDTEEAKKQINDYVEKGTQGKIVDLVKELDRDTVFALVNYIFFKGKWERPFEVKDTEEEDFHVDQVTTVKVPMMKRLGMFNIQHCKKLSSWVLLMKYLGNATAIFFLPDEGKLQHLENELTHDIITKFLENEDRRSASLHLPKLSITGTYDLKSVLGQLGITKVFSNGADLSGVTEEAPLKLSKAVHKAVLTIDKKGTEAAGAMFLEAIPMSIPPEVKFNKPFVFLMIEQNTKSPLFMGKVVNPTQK
Sequence of NL20 human bronchial epithelial cells expressing human Z-AAT (P01009 25-418 E366K limits assumed): as above

Row | Compound | EC50 [1] | IC50 [2]
1 | CC(C)c1c([C@H]2C[C@@H]2C(=O)O)c2cc(O)c(F)cc2n1-c1ccc(F)cc1 [Compound 125] | 0.5 to 2 µM | > 30 µM
2 | Cc1cc(-n2c(C(C)C)c([C@H]3C[C@](C)(C(=O)O)C3)c3cc(O)ccc32)ccc1F [Compound 95] | < 0.5 µM | > 5 µM
3 | O=C(O)[C@H]1CC[C@H](c2c(C3CCOCC3)n(-c3ccc(F)c(F)c3)c3ccc(O)cc32)CC1 [Compound 137] | > 2 µM | > 30 µM
4 | Cc1cc(-n2c(C3CCOCC3)c([C@H]3C[C@@H]3C(=O)O)c3cc(O)ccc32)ccc1F (relative stereo) [Compound 124, trans-2-[1-(4-fluoro-3-methyl-phenyl)-5-hydroxy-2-tetrahydropyran-4-yl-indol-3-yl]cyclopropanecarboxylic acid] | > 2 µM | > 30 µM
5 | O=C(O)[C@H]1C[C@H](c2c(C3CCOCC3)n(-c3cc(F)cc(F)c3)c3ccc(O)cc32)C1 [Compound 112] | > 2 µM | > 30 µM
6 | Cc1nccc(-n2c(C(C)C)c(-c3ccc(C(=O)O)cc3)c3cc(O)ccc32)n1 [Compound 174] | > 2 µM | > 30 µM
7 | Cc1cc(-n2c(C(C)C)c([C@@H]3COC[C@@H]3C#N)c3cc(O)ccc32)ccc1F [Compound 216] | > 2 µM | > 5 µM
8 | Cc1cc(-n2c(C(C)C)c([C@H]3C[C@@H](c4nn[nH]n4)C3)c3cc(O)ccc32)ccc1F [Compound 217, 1-(4-fluoro-3-methyl-phenyl)-2-isopropyl-3-[3-(2H-tetrazol-5-yl)cyclobutyl]indol-5-ol] | 0.5 to 2 µM | > 5 µM
9 | CC(C)(C)OC(=O)N1CCC(c2c(C#N)c3cc(O)ccc3n2-c2ccc(F)cc2)CC1 [Compound 199] | > 2 µM | > 30 µM
10 | Cc1cc(-n2c(C(C)C)c(/C=C/C(=O)O)c3cc(O)c(F)cc32)ccc1F [Compound 181, (E)-3-(6-fluoro-1-(4-fluoro-3-methylphenyl)-5-hydroxy-2-isopropyl-1H-indol-3-yl)acrylic acid] | > 2 µM | > 5 µM
11 | Cc1cc(-n2c(C(C)C)c([C@H]3C[C@@H](CC(=O)O)C3)c3cc(O)ccc32)ccc1F [Compound 63] | 0.5 to 2 µM | > 5 µM
12 | N#Cc1c(C2CCCO2)n(-c2ccc(F)cc2)c2ccc(O)cc12 (stereo not drawn) [Compound 198] | > 2 µM | > 30 µM
13 | O=C(O)[C@H]1C[C@@H](c2c(C3CCOCC3)n(-c3cc(F)cc(F)c3)c3ccc(O)cc32)C1 [Compound 113] | > 2 µM | > 30 µM
14 | CC(C)c1c(-c2cccc(C(=O)O)c2)c2cc(O)ccc2n1C1CC(F)(F)C1 [Compound 180, 3-(1-(3,3-difluorocyclobutyl)-5-hydroxy-2-isopropyl-1H-indol-3-yl)benzoic acid] | > 2 µM | > 30 µM
15 | COC[C@]1(C(=O)O)C[C@@H](c2c(C3CCOCC3)n(-c3ccc(F)c(C)c3)c3ccc(O)cc32)C1 [Compound 107, cis-3-(1-(4-fluoro-3-methylphenyl)-5-hydroxy-2-(tetrahydro-2H-pyran-4-yl)-1H-indol-3-yl)-1-(methoxymethyl)cyclobutane-1-carboxylic acid] | > 2 µM | > 30 µM
16 | Cc1cc(-n2c(C3CCOCC3)c([C@H]3C[C@H](c4nn[nH]n4)C3)c3cc(O)ccc32)ccc1F [Compound 218, 1-(4-fluoro-3-methyl-phenyl)-2-tetrahydropyran-4-yl-3-[3-(2H-tetrazol-5-yl)cyclobutyl]indol-5-ol] | > 2 µM | > 30 µM
17 | Cc1cc(-n2c(C(C)C)c([C@H]3C[C@@](C(=O)O)(C(F)(F)F)C3)c3cc(O)ccc32)ccc1F [Compound 60] | < 0.5 µM | > 5 µM
18 | Cc1cc(-n2c(C(C)C)c([C@@H]3C[C@H]3C(=O)O)c3cc(O)ccc32)ccc1F [Compound 135] | > 2 µM | > 30 µM
19 | Cc1cc(-n2c(C(C)C)c([C@H]3C[C@H](CO)C3)c3cc(O)ccc32)ccc1F [Compound 225, Trans-1-(4-fluoro-3-methyl-phenyl)-3-[3-(hydroxymethyl)cyclobutyl]-2-isopropyl-indol-5-ol] | > 2 µM | > 30 µM
20 | Cc1cc(-n2c([C@@H]3CCOC3)c([C@H]3C[C@@H](C(=O)O)C3)c3cc(O)ccc32)ccc1F [Compound 85] | > 2 µM | > 30 µM
21 | O=C(O)[C@H]1CC2(C1)C[C@H](c1c(C3CCOCC3)n(-c3ccc(F)cc3)c3ccc(O)cc31)C2 (stereo partly drawn) [Compound 51] | 0.5 to 2 µM | > 30 µM
22 | CC(C)c1c([C@H]2C[C@H](C(=O)O)C2)c2cc(O)ccc2n1-c1ccc(F)c(Cl)c1 [Compound 77] | 0.5 to 2 µM | > 5 µM
23 | C[C@]1(C(=O)O)C[C@@H](c2c(C3CCOCC3)n(-c3ccc(F)c(Cl)c3)c3ccc(O)cc32)C1 [Compound 28] | > 2 µM | > 30 µM
24 | Cc1cc(-n2c([C@H]3CCCO3)c([C@H]3C[C@@H]3C(=O)O)c3cc(O)ccc32)ccc1F [Compound 126] | > 2 µM | > 30 µM
25 | O=C(O)[C@]1(CF)C[C@H](c2c(C3CCOCC3)n(-c3ccc(F)c(Cl)c3)c3ccc(O)cc32)C1 [Compound 111] | > 2 µM | > 30 µM
26 | Cc1cc(-n2c(C)c(C(C)C(=O)O)c3cc(O)ccc32)ccc1F (stereo not drawn) [Compound 159] | > 2 µM | > 30 µM
27 | Cc1cc(-n2c(C(C)C)c([C@H]3C[C@@H](CO)C3)c3cc(O)ccc32)ccc1F [Compound 226, cis-1-(4-fluoro-3-methyl-phenyl)-3-[3-(hydroxymethyl)cyclobutyl]-2-isopropyl-indol-5-ol] | > 2 µM | > 30 µM
